# From ChEMBL document CHEMBL1144827, “PTP1B inhibitors: synthesis and evaluation of difluoro-methylenephosphonate bioisosteres on a sulfonamide scaffold” (Bioorg Med Chem Lett, 2008)
# Biological target: T1, Tyrosine-protein phosphatase non-receptor type 1 (Homo sapiens, UniProt P18031)
# T1 sequence (P18031 whole entry): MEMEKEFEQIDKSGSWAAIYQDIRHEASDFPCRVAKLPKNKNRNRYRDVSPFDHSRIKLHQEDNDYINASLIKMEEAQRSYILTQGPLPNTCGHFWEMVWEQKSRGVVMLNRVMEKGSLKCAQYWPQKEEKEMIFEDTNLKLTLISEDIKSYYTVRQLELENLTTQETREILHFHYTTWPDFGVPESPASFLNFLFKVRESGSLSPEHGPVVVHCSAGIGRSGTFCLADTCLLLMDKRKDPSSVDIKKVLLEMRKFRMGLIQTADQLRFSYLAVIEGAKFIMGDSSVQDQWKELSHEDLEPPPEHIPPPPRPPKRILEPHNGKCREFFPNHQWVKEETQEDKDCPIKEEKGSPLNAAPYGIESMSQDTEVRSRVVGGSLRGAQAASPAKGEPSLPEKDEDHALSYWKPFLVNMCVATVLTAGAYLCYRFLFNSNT
# Experiment: Inhibition of PTP1B
row,Structure (SMILES),IC50 [µM]
1,O=C(O)COc1ccc(S(=O)(=O)N(Cc2ccc(-c3csnn3)cc2)Cc2ccc3oc(C(=O)O)cc3c2)cc1,29.1
2,O=C(O)C(F)(F)Oc1cccc(CN(Cc2ccc(-c3csnn3)cc2)S(=O)(=O)c2ccccc2)c1,198
3,O=C(O)COc1ccc(S(=O)(=O)N(Cc2ccc(-c3csnn3)cc2)Cc2ccc(N(C(=O)C(=O)O)c3ccccc3)cc2)cc1,> 250
4,COc1cc(CN(Cc2ccc(-c3csnn3)cc2)S(=O)(=O)c2ccc(OCC(=O)O)cc2)ccc1OC(F)(F)C(=O)O,> 250
5,O=C(O)C(F)(F)c1ccc(CN(Cc2ccc(-c3csnn3)cc2)S(=O)(=O)c2ccccc2)cc1,51.8
6,O=C(O)COc1ccc(S(=O)(=O)N(Cc2ccc(-c3csnn3)cc2)Cc2ccc([S+]([O-])CC(=O)O)cc2)cc1 (centres undefined),> 250
7,Cc1cc(CN(Cc2ccc(-c3csnn3)cc2)S(=O)(=O)c2ccc(OCC(=O)O)cc2)ccc1OCC(=O)O,76.2
8,O=C(O)COc1ccc(S(=O)(=O)N(Cc2ccc(-c3csnn3)cc2)Cc2ccc(S(=O)(=O)CC(=O)O)cc2)cc1,> 250
9,CC(C(=O)O)(C(=O)O)c1ccc(CN(Cc2ccc(-c3csnn3)cc2)S(=O)(=O)c2ccc(OCC(=O)O)cc2)cc1,74.2
10,O=P(O)(O)C(F)(F)c1ccc(CN(Cc2ccc(-c3csnn3)cc2)S(=O)(=O)c2ccccc2)cc1,0.2
11,O=C(O)COc1ccc(S(=O)(=O)N(Cc2ccc(-c3csnn3)cc2)Cc2ccc(OCC(=O)O)c(Cl)c2)cc1,57.7
12,O=C(O)COc1ccc(CN(Cc2ccc(-c3csnn3)cc2)S(=O)(=O)c2ccccc2)cc1Cl,53.8
13,O=C(O)COc1ccc(CN(Cc2ccc(-c3csnn3)cc2)S(=O)(=O)c2ccccc2)cc1,54.1
14,O=C(O)C(=O)Nc1ccc(CN(Cc2ccc(-c3csnn3)cc2)S(=O)(=O)c2ccccc2)cc1Br,13.8
15,O=C(O)COc1c(F)cc(CN(Cc2ccc(-c3csnn3)cc2)S(=O)(=O)c2ccccc2)cc1F,137
16,O=C(O)COc1ccc(S(=O)(=O)N(Cc2ccc(SCC(=O)O)cc2)Cc2ccc(-c3csnn3)cc2)cc1,114
17,O=C(O)C(F)(F)Oc1ccc(CN(Cc2ccc(-c3csnn3)cc2)S(=O)(=O)c2ccccc2)cc1,97.1
18,Cc1cc(CN(Cc2ccc(-c3csnn3)cc2)S(=O)(=O)c2ccccc2)cc(C)c1OC(Cc1ccccc1)C(=O)O (centres undefined),38
19,O=C(O)COc1ccc(S(=O)(=O)N(Cc2ccc(-c3csnn3)cc2)Cc2ccc(OCC(=O)O)c(C(=O)O)c2)cc1,4.4
20,O=C(O)C(=O)N(c1ccccc1)c1ccc(CN(Cc2ccc(-c3csnn3)cc2)S(=O)(=O)c2ccccc2)cc1,235
21,O=C(O)C(=O)Nc1ccc(CN(Cc2ccc(-c3csnn3)cc2)S(=O)(=O)c2ccccc2)cc1C(=O)O,10.1
22,O=C(O)c1cc2cc(CN(Cc3ccc(-c4csnn4)cc3)S(=O)(=O)c3ccccc3)ccc2o1,63.6

row,Structure (SMILES),IC50 [µM]
1,O=C(O)COc1ccc(CN(Cc2ccc(-c3csnn3)cc2)S(=O)(=O)c2ccccc2)cc1Br,7.9
2,O=C(O)COc1ccc(S(=O)(=O)N(Cc2ccc(OC(F)(F)C(=O)O)cc2)Cc2ccc(-c3csnn3)cc2)cc1,29.1
3,O=P(O)(O)Cc1ccc(CN(Cc2ccc(-c3csnn3)cc2)S(=O)(=O)c2ccccc2)cc1,123
4,O=C(O)CSc1ccc(CN(Cc2ccc(-c3csnn3)cc2)S(=O)(=O)c2ccccc2)cc1,115
5,O=C(O)C(F)(F)Oc1ccc(CN(Cc2ccc(-c3csnn3)cc2)S(=O)(=O)c2ccccc2)cc1Br,52.1
6,O=C(O)COc1ccc(S(=O)(=O)N(Cc2ccc(-c3csnn3)cc2)Cc2ccc(NC(=O)C(=O)O)c(C(=O)O)c2)cc1,1.4
7,O=C(O)COc1ccc(S(=O)(=O)N(Cc2ccc(CP(=O)(O)O)cc2)Cc2ccc(-c3csnn3)cc2)cc1,96.8
8,O=C(O)COc1ccc(S(=O)(=O)N(Cc2ccc(-c3csnn3)cc2)Cc2ccc(C(F)(F)C(=O)O)cc2)cc1,17.7
9,O=C(O)COc1ccc(S(=O)(=O)N(Cc2ccc(-c3csnn3)cc2)Cc2cccc(OC(F)(F)C(=O)O)c2)cc1,230
10,O=C(O)C[S+]([O-])c1ccc(CN(Cc2ccc(-c3csnn3)cc2)S(=O)(=O)c2ccccc2)cc1 (centres undefined),173
11,O=C(O)COc1ccc(S(=O)(=O)N(Cc2ccc(C(=O)C(=O)O)cc2)Cc2ccc(-c3csnn3)cc2)cc1,27.6
12,Cc1cc(CN(Cc2ccc(-c3csnn3)cc2)S(=O)(=O)c2ccc(OCC(=O)O)cc2)cc(C)c1OC(Cc1ccccc1)C(=O)O (centres undefined),> 250
13,COc1cc(CN(Cc2ccc(-c3csnn3)cc2)S(=O)(=O)c2ccccc2)ccc1OC(F)(F)C(=O)O,237
14,O=C(O)COc1ccc(CN(Cc2ccc(-c3csnn3)cc2)S(=O)(=O)c2ccccc2)cc1C(=O)O,12.2
15,O=C(O)COc1ccc(S(=O)(=O)N(Cc2ccc(-c3csnn3)cc2)Cc2ccc(OC(F)(F)C(=O)O)c(Br)c2)cc1,77.9
16,O=C(O)COc1ccc(CN(Cc2ccc(-c3csnn3)cc2)S(=O)(=O)c2ccc(OCC(=O)O)cc2)cc1,59.6
17,O=C(O)C(=O)c1ccc(CN(Cc2ccc(-c3csnn3)cc2)S(=O)(=O)c2ccccc2)cc1,60.3
18,CC(C(=O)O)c1ccc(CN(Cc2ccc(-c3csnn3)cc2)S(=O)(=O)c2ccc(OCC(=O)O)cc2)cc1 (centres undefined),153
19,Cc1cc(CN(Cc2ccc(-c3csnn3)cc2)S(=O)(=O)c2ccccc2)ccc1OCC(=O)O,80.7
20,O=C(O)COc1ccc(S(=O)(=O)N(Cc2ccc(-c3csnn3)cc2)Cc2ccc(OCC(=O)O)c(Br)c2)cc1,4.1
21,O=C(O)COc1ccc(S(=O)(=O)N(Cc2ccc(-c3csnn3)cc2)Cc2cc(F)c(OCC(=O)O)c(F)c2)cc1,19.9
22,O=C(O)CS(=O)(=O)c1ccc(CN(Cc2ccc(-c3csnn3)cc2)S(=O)(=O)c2ccccc2)cc1,232
